Assay results taken from patent US20080318943A1, “Compounds and Uses Thereof - 848” (ASTRAZENECA AB, priority 2007, published 2008).

Assays:
[1] = molecular target: T1, GABAA2 receptors (α2, β3, γ2 receptor subunits transfected into Sf9 cells) (Homo sapiens, UniProt P18507+P47869); assay: GABAA2 Binding Method ([3H]-Flunitrazepam displacement); conditions: [3H]-Flunitrazepam ~2 nM, α2β3γ2 Sf9 membranes, 1 hr at 4° C.
T1 construct: host or cells: Sf9 cells (membranes)
Method in brief: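 Membranes from Sf9 cells expressing α2β3γ2 GABAA receptors incubated with ~2 nM (final) [3H]-flunitrazepam and test compound 1 h at 4 °C, then filtered on GF/B plates with cold-buffer washes. Flumazenil-defined controls; percent of control, IC50 and Ki calculated.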

GABAA receptor α2β3γ2 = molecular target: T2, GABAA receptor α2β3γ2 (Homo sapiens, UniProt P18507+P47869); assay: Two-electrode voltage-clamp potentiation of GABA EC10 current in Xenopus oocytes, GABAA2; assay type: cell-based; conditions: percentage potentiation of GABA EC10 current divided by that of diazepam
T2 construct: expressed in transfected cells; host or cells: Xenopus laevis oocytes injected with cRNA
Method in brief: (§1)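 Human GABAA receptors expressed in Xenopus oocytes by cRNA injection (α:β:γ molar ratio ~1:1:10 for α1β2γ2, 1:1:1 for α2β3γ2), recorded 2-10 days later by two-electrode voltage clamp at −60 mV in ND-96, pH 7.5. Modulator preapplied 30 s before GABA at per-oocyte EC10. Peak-current percent potentiation over GABA alone, normalised to diazepam.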

GABAA receptor α1β2γ2 = molecular target: T3, GABAA receptor α1β2γ2 (Homo sapiens, UniProt P14867+P18507); assay: Two-electrode voltage-clamp potentiation of GABA EC10 current in Xenopus oocytes, GABAA1; assay type: cell-based; conditions: percentage potentiation of GABA EC10 current divided by that of diazepam
T3 construct: expressed in transfected cells; host or cells: Xenopus laevis oocytes injected with cRNA
Method in brief: as §1

[2] = EEG protocol (Method JJ), spontaneous EEG in behaving rats; assay type: in vivo, Sprague Dawley rats
From the text: In another embodiment, certain compounds of the invention may be useful in treating schizophrenia. In a particular embodiment, certain compounds of the invention may be useful in treating cognitive disorders associated with schizophrenia. The existing non-selective GABAergic agents are generally not suitable for treating information/cognitive processing deficits in schizophrenia due to the unacceptable competing side effects, such as overt sedation and memory impairment. Certain compounds of the invention are capable of selective modification of function at the specific GABAergic synapses affected by the schizophrenic disease state. Therefore, these certain compounds of the invention acting selectively at GABAA α2 subunits may be used for treating cognitive deficits in schizophrenia.
Subjects: Sprague Dawley rats weighing 300-400 g at time of surgery are used as subjects. Rats are maintained>1 week in AstraZeneca vivarium prior to surgical procedures. Rats are housed singly, maintained on a 12:12 light:dark cycle, and fed and watered ad lib for a period of>14 days following surgery. […]
During compound testing sessions, animals are initially allowed to re-acclimate to the operant chamber for 10-20′ minutes prior to a 30-minute baseline session in which performance and EEG are continuously monitored. […]

T3 sequence (P14867 28-456): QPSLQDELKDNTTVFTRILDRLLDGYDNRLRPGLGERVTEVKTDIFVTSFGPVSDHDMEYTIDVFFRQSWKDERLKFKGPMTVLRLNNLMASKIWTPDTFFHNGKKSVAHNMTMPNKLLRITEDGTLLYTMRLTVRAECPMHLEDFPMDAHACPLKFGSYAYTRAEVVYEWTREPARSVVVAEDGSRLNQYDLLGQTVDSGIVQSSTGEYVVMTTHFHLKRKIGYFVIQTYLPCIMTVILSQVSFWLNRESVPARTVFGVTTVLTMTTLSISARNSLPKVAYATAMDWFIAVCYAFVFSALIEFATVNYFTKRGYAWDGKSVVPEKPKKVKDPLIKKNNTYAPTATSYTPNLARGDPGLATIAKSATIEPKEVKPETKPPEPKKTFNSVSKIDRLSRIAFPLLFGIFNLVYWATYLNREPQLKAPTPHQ
T3 sequence (P47870 25-512 partner limits assumed): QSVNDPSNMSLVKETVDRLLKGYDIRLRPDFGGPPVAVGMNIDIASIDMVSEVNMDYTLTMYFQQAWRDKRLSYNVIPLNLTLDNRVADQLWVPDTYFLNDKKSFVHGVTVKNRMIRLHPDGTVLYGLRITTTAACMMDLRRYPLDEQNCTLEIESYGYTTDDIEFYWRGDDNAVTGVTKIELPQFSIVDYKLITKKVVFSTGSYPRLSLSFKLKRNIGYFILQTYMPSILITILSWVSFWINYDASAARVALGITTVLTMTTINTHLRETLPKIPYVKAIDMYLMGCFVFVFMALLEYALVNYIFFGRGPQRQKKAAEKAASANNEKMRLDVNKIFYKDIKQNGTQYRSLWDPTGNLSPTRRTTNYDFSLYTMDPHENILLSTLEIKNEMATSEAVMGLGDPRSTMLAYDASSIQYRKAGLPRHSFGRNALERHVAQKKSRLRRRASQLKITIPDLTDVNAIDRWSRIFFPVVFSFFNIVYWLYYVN
T3 sequence (P18507 40-475): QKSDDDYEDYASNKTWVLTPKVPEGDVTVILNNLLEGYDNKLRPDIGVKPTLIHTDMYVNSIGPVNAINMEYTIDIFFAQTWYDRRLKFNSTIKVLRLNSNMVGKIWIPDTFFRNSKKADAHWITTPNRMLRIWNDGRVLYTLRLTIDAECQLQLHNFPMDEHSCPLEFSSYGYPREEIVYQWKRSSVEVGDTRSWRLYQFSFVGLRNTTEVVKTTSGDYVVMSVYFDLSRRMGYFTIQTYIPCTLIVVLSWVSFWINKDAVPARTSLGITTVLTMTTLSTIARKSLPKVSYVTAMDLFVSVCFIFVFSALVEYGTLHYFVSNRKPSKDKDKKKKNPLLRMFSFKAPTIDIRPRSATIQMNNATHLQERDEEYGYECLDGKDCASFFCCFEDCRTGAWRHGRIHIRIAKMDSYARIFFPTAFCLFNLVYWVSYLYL
T1 sequence (P47869 29-451): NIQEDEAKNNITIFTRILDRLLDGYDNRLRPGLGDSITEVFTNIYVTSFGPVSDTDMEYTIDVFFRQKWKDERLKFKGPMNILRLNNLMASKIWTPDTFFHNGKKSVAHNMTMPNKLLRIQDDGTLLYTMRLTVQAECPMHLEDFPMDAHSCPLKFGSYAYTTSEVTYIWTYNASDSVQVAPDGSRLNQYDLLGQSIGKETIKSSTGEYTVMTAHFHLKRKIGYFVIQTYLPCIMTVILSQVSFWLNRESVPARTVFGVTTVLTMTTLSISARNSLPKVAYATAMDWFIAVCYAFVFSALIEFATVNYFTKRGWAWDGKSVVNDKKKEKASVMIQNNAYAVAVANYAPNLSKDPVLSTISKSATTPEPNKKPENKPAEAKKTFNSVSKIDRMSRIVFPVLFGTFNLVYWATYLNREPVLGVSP
T1 sequence (P28472 26-473 partner): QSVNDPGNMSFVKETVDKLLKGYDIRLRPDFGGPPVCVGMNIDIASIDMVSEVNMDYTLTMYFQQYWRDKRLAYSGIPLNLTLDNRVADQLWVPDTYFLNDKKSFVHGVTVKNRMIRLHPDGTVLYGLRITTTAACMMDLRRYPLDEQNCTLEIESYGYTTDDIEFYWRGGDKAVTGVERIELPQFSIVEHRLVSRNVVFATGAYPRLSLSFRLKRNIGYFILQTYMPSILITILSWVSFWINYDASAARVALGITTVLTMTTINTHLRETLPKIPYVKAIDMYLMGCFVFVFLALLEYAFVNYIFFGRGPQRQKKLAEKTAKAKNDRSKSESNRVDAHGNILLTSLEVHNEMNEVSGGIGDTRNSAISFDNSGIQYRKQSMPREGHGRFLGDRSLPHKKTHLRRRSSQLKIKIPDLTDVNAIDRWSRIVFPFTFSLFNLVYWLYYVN
T1 sequence (P18507 40-475): as the sequence (P18507 40-475) above
T2 sequence (P47869 29-451): as the sequence (P47869 29-451) above
T2 sequence (P28472 26-473 partner): as the sequence (P28472 26-473 partner) above
T2 sequence (P18507 40-475): as the sequence (P18507 40-475) above

| SMILES | Ki [1] [nM] | Relative Potentiation for GABAA2 (GABAA receptor α2β3γ2) | Relative Potentiation for GABAA1 (GABAA receptor α1β2γ2) | Relative Potentiation for GABAA1 (GABAA receptor α1β2γ2; listed as 9-amino-2-cyclobutyl-5-(2,4-dimethoxypyrimidin-5-yl)-2,3-dihydro-1H-pyrrolo[3,4-) | spontaneous EEG across a range of oscillation frequencies [2] | spontaneous EEG at gamma frequencies [2] |
| --- | --- | --- | --- | --- | --- | --- |
| Cc1nn(C)cc1-c1c(F)ccc2c(N)c3c(nc12)CN([C@@H]1CCOC1)C3=O [Example 97, 9-Amino-5-(1,3-dimethyl-1H-pyrazol-4-yl)-6-fluoro-2-(R)-tetrahydrofuran-3-yl-2,3-dihydropyrrolo[3,4-b]quinolin-1-one] | 10.4 | 0.35 | 0.15 | – | – | – |
| COc1ccc(-c2c(F)ccc3c(N)c4c(nc23)CN(C2CCC2)C4=O)c(OC)c1 [Example 100, 9-Amino-2-cyclobutyl-5-(2,4-dimethoxyphenyl)-6-fluoro-2,3-dihydropyrrolo[3,4-b]quinolin-1-one] | 0.249 | 0.23 | 0.044 | – | – | – |
| Nc1c2c(nc3c(-c4cc(F)ccc4F)cccc13)CN(C1CC1)C2=O [Example 112, 9-Amino-2-cyclopropyl-5-(2,5-difluorophenyl)-2,3-dihydropyrrolo[3,4-b]quinolin-1-one] | 6.83 | 0.13 | −0.034 | – | – | – |
| Nc1c2c(nc3c(-c4c(F)cccc4F)cccc13)CN(C1CC1)C2=O [Example 114, 9-Amino-2-cyclopropyl-5-(2,6-difluorophenyl)-2,3-dihydropyrrolo[3,4-b]quinolin-1-one] | 3.5 | 0.13 | −0.058 | – | – | – |
| COc1ccc(-c2cccc3c(N)c4c(nc23)CN(C2CC2)C4=O)c(F)c1 [Example 115, 9-Amino-2-cyclopropyl-5-(2-fluoro-4-methoxyphenyl)-2,3-dihydropyrrolo[3,4-b]quinolin-1-one] | 14.5 | 0.12 | −0.05 | – | – | – |
| COc1ncc(-c2cccc3c(N)c4c(nc23)CN(C2CCC2)C4=O)c(OC)n1 [Example 123, 9-Amino-2-cyclobutyl-5-(2,4-dimethoxypyrimidin-5-yl)-2,3-dihydropyrrolo[3,4-b]quinolin-1-one] | 4.23 | 0.44 | 0.13 | 0.12 | – | – |
| Nc1c2c(nc3c(-c4ccccc4F)cccc13)CN(C1CCC1)C2=O [Example 124, 9-Amino-2-cyclobutyl-5-(2-fluorophenyl)-2,3-dihydropyrrolo[3,4-b]quinolin-1-one] | 0.945 | 0.14 | −0.016 | – | – | – |
| COc1ccc(-c2cccc3c(N)c4c(nc23)CN(C2CCCC2)C4=O)cn1 [Example 147, 9-Amino-2-cyclopentyl-5-(6-methoxypyridin-3-yl)-2,3-dihydropyrrolo[3,4-b]quinolin-1-one] | 31.6 | 0.23 | 0.016 | – | – | – |
| COc1ncccc1-c1c(F)ccc2c(N)c3c(nc12)CN([C@H]1CCOC1)C3=O [Example 170, 9-Amino-6-fluoro-5-(2-methoxypyridin-3-yl)-2-(S)-tetrahydrofuran-3-yl-2,3-dihydropyrrolo[3,4-b]quinolin-1-one] | 5.68 | 0.19 | −0.14 | – | – | – |
| O=C1Nc2ccc(Cl)cc2C(c2ccccc2Cl)=NC1O (stereo not drawn) [Lorazepam] | – | – | – | – | broad changes | – |
| Cc1ccc(-c2nc3ccc(C)cn3c2CC(=O)N(C)C)cc1 [zolpidem] | – | – | – | – | – | no significant increase |
